{
  "source": "ChEMBL document CHEMBL1201862",
  "about": "“PubChem BioAssay data set” (2004)",
  "key": {"BJ [1]": {"system": "BJ", "test": "BJ-TERT fibroblast viability loss – cell-based, RAS-independent, luminescence, dose response (AID 1933)", "format": "functional", "conditions": "Homo sapiens"}, "cells [2]": {"test": "cells", "format": "functional, cell-based"}, "Beta-galactosidase [3]": {"target": "T1, Beta-galactosidase (Escherichia coli, UniProt Q8VNN2)", "T1 sequence (Q8VNN2 whole entry)": "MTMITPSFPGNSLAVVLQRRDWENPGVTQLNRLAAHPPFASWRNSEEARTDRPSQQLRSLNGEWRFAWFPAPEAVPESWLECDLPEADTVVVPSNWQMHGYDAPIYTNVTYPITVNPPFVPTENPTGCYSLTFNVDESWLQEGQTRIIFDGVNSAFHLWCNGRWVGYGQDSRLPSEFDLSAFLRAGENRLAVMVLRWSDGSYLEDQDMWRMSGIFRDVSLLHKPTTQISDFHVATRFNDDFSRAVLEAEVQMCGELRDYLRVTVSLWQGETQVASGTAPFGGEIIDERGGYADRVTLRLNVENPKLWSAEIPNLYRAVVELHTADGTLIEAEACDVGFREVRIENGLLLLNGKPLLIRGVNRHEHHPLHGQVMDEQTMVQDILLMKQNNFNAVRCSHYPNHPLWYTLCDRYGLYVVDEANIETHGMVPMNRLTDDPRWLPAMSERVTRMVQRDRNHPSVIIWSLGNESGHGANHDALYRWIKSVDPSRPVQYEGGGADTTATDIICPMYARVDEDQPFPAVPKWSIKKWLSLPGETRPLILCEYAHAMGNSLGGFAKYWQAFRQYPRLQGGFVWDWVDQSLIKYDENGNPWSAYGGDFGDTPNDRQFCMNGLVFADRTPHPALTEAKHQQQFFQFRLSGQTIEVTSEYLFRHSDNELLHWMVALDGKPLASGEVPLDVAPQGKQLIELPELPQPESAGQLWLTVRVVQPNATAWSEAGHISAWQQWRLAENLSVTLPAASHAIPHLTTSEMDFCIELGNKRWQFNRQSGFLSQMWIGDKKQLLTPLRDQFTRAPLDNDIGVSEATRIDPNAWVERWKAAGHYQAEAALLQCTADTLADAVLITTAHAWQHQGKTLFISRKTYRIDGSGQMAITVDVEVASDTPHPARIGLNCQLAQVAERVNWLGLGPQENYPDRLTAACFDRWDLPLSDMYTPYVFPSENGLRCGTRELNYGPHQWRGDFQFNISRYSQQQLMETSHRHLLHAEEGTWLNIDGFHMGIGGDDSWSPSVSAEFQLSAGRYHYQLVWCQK", "test": "PubChem AID 485352", "format": "functional"}, "BJ [4]": {"system": "BJ", "test": "cells", "format": "functional, cell-based", "conditions": "Homo sapiens"}, "[5]": {"target": "Type-1 angiotensin II receptor (Homo sapiens, UniProt P30556)", "sequence (P30556 whole entry)": "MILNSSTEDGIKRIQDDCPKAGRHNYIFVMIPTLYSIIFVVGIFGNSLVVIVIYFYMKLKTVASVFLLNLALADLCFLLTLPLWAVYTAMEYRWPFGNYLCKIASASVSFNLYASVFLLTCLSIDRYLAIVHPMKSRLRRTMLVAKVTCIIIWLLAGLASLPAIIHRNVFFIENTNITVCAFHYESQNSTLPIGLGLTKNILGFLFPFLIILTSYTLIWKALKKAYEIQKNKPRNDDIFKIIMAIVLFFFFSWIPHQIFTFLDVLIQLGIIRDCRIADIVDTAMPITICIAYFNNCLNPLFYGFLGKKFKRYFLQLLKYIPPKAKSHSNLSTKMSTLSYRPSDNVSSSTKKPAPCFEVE", "test": "antagonism of angiotensin II type 1 receptor – cell-based, uHTS hits, selectivity assay for APJ receptor antagonist project, dose response (AID 463214)", "format": "functional"}, "cells [6]": {"test": "cells", "format": "functional, cell-based", "remark": "listed apart in the source"}, "[7]": {"target": "T2, Kappa-type opioid receptor (Homo sapiens, UniProt P41145)", "T2 sequence (P41145 whole entry)": "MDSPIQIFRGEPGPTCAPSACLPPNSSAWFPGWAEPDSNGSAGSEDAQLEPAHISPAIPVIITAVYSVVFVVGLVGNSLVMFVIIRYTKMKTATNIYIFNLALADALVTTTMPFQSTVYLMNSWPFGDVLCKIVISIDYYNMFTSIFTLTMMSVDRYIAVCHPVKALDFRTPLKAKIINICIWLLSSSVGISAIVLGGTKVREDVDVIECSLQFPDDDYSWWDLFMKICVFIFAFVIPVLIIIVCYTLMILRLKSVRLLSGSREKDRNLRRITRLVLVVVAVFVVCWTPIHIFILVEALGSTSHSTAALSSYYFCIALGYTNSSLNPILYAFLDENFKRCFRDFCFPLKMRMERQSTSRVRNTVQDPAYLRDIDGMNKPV", "format": "functional"}, "Beta-galactosidase [8]": {"target": "T1, Beta-galactosidase", "format": "functional"}, "BJ [9]": {"system": "BJ", "test": "BJ-TERT-LT-ST fibroblast viability loss – cell-based, RAS-independent, luminescence, dose response (AID 1935);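 further: BJ fibroblasts immortalized with TERT plus LT and ST oncogenes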", "format": "functional", "conditions": "Homo sapiens"}, "[10]": {"target": "T2, Kappa-type opioid receptor", "format": "functional", "remark": "listed apart in the source"}, "[11]": {"test": "DRD fibroblast viability loss – cell-based, non-viral oncogenic, luminescence, dose response (AID 1934)", "format": "functional", "conditions": "Homo sapiens"}, "[12]": {"test": "THP-1 cell cytotoxicity, dose response, cytotoxicity control for non-replicating M. tuberculosis project (AID 489025)", "format": "functional"}, "[13]": {"test": "HepG2 cell cytotoxicity, dose response, cytotoxicity control for non-replicating M. tuberculosis project (AID 489018)", "format": "functional", "conditions": "Mycobacterium tuberculosis"}, "[14]": {"test": "Vero E6 cell cytotoxicity, dose response, cytotoxicity control for non-replicating M. tuberculosis project, secondary assay (AID 492998)", "format": "functional, VeroE6", "conditions": "Vero C1008"}, "cells [15]": {"test": "cells", "format": "functional"}, "Vero [16]": {"system": "Vero", "test": "cells", "format": "functional, cell-based", "conditions": "Chlorocebus sabaeus"}, "INS1": {"system": "INS1", "test": "INS-1E survival protection against cytokine death – cell-based, luminescence, retest, dose response (AID 449756);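 further: cell death triggered by IL-1 beta plus TNF-alpha plus IFN-gamma mixture; protective hits raise ATP signal compared with cytokine alone wells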", "format": "functional", "conditions": "Rattus norvegicus"}, "Vero [17]": {"system": "Vero", "test": "cells", "format": "functional", "conditions": "Chlorocebus sabaeus"}, "[18]": {"test": "reduction of Shn3 3'UTR-driven luciferase in osteoblasts – cell-based, Clone20 osteoblasts, firefly luciferase, cherry-picked, dose response (AID 624132)", "format": "functional"}, "[19]": {"test": "loss of viability in HepG2 cells – cell-based, CellTiter-Glo, cherry-picked, cytotoxicity control for Shn3 inhibitor project, dose response (AID 624134)", "format": "functional"}, "[20]": {"test": "non-specific 3'UTR reporter inhibition in Clone20-Shn3RL – cell-based, Renilla luciferase, cherry-picked, counter-screen for Shn3 inhibitor project, dose response (AID 624133)", "format": "functional"}, "Protein skinhead-1": {"target": "T3, Protein skinhead-1 (Caenorhabditis elegans, UniProt P34707)", "T3 sequence (P34707 whole entry)": "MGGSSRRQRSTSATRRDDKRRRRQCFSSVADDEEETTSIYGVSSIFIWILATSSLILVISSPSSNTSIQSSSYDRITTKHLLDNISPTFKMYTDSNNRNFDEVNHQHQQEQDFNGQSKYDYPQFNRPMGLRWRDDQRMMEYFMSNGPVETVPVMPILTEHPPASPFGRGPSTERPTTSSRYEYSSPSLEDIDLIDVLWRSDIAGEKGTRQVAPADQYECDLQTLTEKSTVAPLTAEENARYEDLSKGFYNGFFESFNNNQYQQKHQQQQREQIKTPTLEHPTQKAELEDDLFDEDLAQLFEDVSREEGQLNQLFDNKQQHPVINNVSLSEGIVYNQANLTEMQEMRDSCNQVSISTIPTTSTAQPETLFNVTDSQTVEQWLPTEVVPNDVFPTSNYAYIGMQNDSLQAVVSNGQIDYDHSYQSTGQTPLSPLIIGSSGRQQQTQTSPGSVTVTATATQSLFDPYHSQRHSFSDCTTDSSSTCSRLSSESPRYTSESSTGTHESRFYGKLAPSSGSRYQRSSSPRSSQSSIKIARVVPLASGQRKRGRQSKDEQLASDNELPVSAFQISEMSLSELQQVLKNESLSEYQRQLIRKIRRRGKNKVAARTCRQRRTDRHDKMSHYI", "format": "functional"}, "[21]": {"test": "A549 cell cytotoxicity, dose response, cytotoxicity control, plate reader, cherry-pick, antagonist series (AID 743412)", "format": "functional, cell-based"}, "[22]": {"test": "toxicity toward HepG2 liver cells – cell-based, plate reader, cherry-pick, antagonist series, cytotoxicity control, dose response (AID 743416)", "format": "functional"}, "[23]": {"test": "blockers of bursicon-stimulated LGR2 cAMP reporter – cell-based, HEK293, CRE-luciferase reporter, cherry pick, set 2, dose response (AID 743343);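 further: transfected cells were stimulated with diluted bursicon conditioned medium after compound addition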", "format": "functional"}, "[24]": {"test": "blockade of melanocortin 4 receptor signaling – cell-based, plate reader, cherry pick, counter-screen for LGR2 antagonist project, dose response (AID 743444);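 further: transfected HEK 293 cells stimulated with alpha-MSH peptide; potency of inhibitors of the alpha-MSH evoked signal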", "format": "functional"}, "[25]": {"test": "viability loss in HEK293 cells – cell-based, plate reader, cherry-picked samples, cytotoxicity control, dose response (AID 743446)", "format": "functional"}, "[26]": {"system": "Streptococcus sp. 'group A'", "test": "Streptococcus pyogenes SK(-)GAS viability under kanamycin – luminescence, BacTiterGlo, confirmation, counter-screen for streptokinase expression inhibitor project, dose response (AID 1900)", "format": "functional, organism-based"}, "Streptokinase A": {"target": "T4, Streptokinase A (Streptococcus pyogenes serotype M1, UniProt P10520)", "T4 sequence (P10520 whole entry)": "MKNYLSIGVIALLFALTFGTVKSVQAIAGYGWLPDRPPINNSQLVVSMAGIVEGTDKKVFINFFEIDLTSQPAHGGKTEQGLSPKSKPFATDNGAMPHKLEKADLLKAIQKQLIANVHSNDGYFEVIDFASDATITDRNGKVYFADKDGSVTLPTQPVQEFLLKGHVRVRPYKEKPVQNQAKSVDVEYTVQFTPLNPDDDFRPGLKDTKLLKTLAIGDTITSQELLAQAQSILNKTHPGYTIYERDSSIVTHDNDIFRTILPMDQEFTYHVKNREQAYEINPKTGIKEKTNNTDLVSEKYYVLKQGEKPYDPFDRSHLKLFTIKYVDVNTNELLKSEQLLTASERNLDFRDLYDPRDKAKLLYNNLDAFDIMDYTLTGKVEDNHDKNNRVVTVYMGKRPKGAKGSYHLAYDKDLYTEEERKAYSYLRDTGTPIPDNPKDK", "test": "viability-normalized secreted streptokinase activity reduction – plasminogen activation absorbance, OD405, dose response (AID 1914);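 further: secreted streptokinase activity via plasminogen activation per viability signal from cell pellet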", "format": "functional, Streptococcus pyogenes M1 GAS"}, "Streptococcus": {"system": "Streptococcus", "test": "GAS UMAA2166 growth inhibition – luminescence, BacTiterGlo, counter-screen for streptokinase expression inhibitor project, dose response (AID 1915);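 further: potency for reduction of bacterial viability or growth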", "format": "functional, organism-based"}},
  "note": "Calls of active or inactive are those of the source.",
  "data": [
    {"smiles": "O=C(Nc1nc2c(F)cc(F)cc2s1)c1ccccn1", "values": [
      {"measurement": "EC50", "setting": "BJ [1]", "result": "11.2 µM (active)"},
      {"measurement": "EC50", "setting": "cells [2]", "result": "> 350 µM (not active)"},
      {"measurement": "EC50", "setting": "Beta-galactosidase [3]", "result": "> 40 µM (inactive)"},
      {"measurement": "EC50", "setting": "BJ [4]", "result": "78.2 µM (active)"},
      {"measurement": "IC50", "setting": "[5]", "result": "9.46 µM (active)"},
      {"measurement": "EC50", "setting": "cells [6]", "result": "7.18 µM (active)"},
      {"measurement": "IC50", "setting": "[7]", "result": "8.25 µM (active)"},
      {"measurement": "EC50", "setting": "Beta-galactosidase [8]", "result": "> 31.5 µM (inactive)"},
      {"measurement": "EC50", "setting": "BJ [9]", "result": "> 150 µM (not active)"},
      {"measurement": "IC50", "setting": "[10]", "result": "> 32", "unit": "µM"},
      {"measurement": "EC50", "setting": "[11]", "result": "1.63 µM (active)"},
      {"measurement": "CC50", "setting": "[12]", "result": "2.14 µM (active)"},
      {"measurement": "CC50", "setting": "[13]", "result": "4.95 µM (active)"},
      {"measurement": "CC50", "setting": "[14]", "result": "2.12 µM (active)"},
      {"measurement": "IC50", "setting": "cells [15]", "result": "0.42 µM (active)"},
      {"measurement": "IC50", "setting": "Vero [16]", "result": "> 25 µM (active)"},
      {"measurement": "AC50", "setting": "INS1", "result": "2.08 µM (active)"},
      {"measurement": "CC50", "setting": "Vero [17]", "result": "7.89 µM (active)"},
      {"measurement": "AC50", "setting": "[18]", "result": "6.69 µM (active)"},
      {"measurement": "AC50", "setting": "[19]", "result": "15.2 µM (active)"},
      {"measurement": "AC50", "setting": "[20]", "result": "2.21 µM (active)"},
      {"measurement": "IC50", "setting": "Protein skinhead-1", "result": "> 100 µM (inactive)"},
      {"measurement": "AC50", "setting": "[21]", "result": "2.66 µM (active)"},
      {"measurement": "AC50", "setting": "[22]", "result": "2.09 µM (active)"},
      {"measurement": "AC50", "setting": "[23]", "result": "4.05 µM (active)"},
      {"measurement": "AC50", "setting": "[24]", "result": "3.17 µM (active)"},
      {"measurement": "AC50", "setting": "[25]", "result": "10.8 µM (active)"}
    ]},
    {"smiles": "Cc1ccc(NNC(=O)c2cc(C(C)(C)C)nn2Cc2ccccc2)cc1", "values": [
      {"measurement": "EC50", "setting": "[26]", "result": "17.5 µM (active)"},
      {"measurement": "EC50", "setting": "Beta-galactosidase [3]", "result": "> 40 µM (inactive)"},
      {"measurement": "EC50", "setting": "Streptokinase A", "result": "29.5 µM (active)"},
      {"measurement": "IC50", "setting": "[5]", "result": "3.81 µM (active)"},
      {"measurement": "EC50", "setting": "Streptococcus", "result": "> 150 µM (not active)"}
    ]}
  ]
}
